The source of these data is ChEMBL document CHEMBL1201862, “PubChem BioAssay data set” (2004).

Some test systems named below: 786-0; ACHN; EKVX; HCT-116; HOP-62; KM12; MDA-MB-435; MDA-N; Malme-3M; NCI-H226; NCI/ADR-RES; OVCAR-3; SK-OV-3; SN12C; SNB-75; SR; UACC-257; UO-31; NCI-H522; T47D.
Common to all, as to assay: NCI-60 cell line screen, 48 h

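All cell lines were grown in 96-well plates and treated with compound for 48 hours. GI50: concentration for 50% inhibition of growth.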 Calls of active or inactive are those of the source. Rule as the data show it: active = GI50 up to about 1.1 µM and inactive = higher. Peptide text beside a SMILES is read from it. * marks the point of attachment. Boc = CC(C)(C)OC(=O)*; OBn = c1ccc(CO*)cc1; Bn = c1ccc(C*)cc1 Some results are limits rather than exact numbers.

Take `CC(=O)NC(C)(C)C1CCC(C)CC1` (centres undefined): the GI50 with 786-0, with ACHN, with EKVX, in the assay with HCT-116, with HOP-62 and in the assay on KM12 was > 100 µM (inactive) in each case. For the same compound, the GI50 in the assay on MDA-MB-435, in the assay on MDA-N, with Malme-3M, with NCI-H226, in the assay on NCI/ADR-RES and with OVCAR-3 was > 100 µM (inactive) in each case. In addition, the GI50 in the assay with SK-OV-3, in the assay with SN12C, in the assay with SNB-75, in the assay on SR, in the assay with UACC-257 and with UO-31 was > 100 µM (inactive) in each case.
Consider `CC(C)CC(NC(=O)C(CCC(=O)OCc1ccccc1)NC(=O)OC(C)(C)C)C(=O)NC(COCc1ccccc1)C(=O)NC(Cc1ccccc1)C(=O)O` (centres undefined) (Boc-E(OBn)LS(Bn)F-OH; configuration not given here), for which the GI50 in the assay with 786-0, in the assay with ACHN, with EKVX, with HCT-116, in the assay with HOP-62 and in the assay with KM12 was > 100 µM (inactive) throughout. In addition, the GI50 is > 100 µM (inactive) in the assay with MDA-N; 46.9 µM (inactive) with Malme-3M; > 100 µM (inactive) in the assay on NCI-H226; > 100 µM (inactive) in the assay on SN12C; 96.8 µM (inactive) with SNB-75; > 100 µM (inactive) with SR. The GI50 in the assay on UACC-257 and in the assay on UO-31 was > 100 µM (inactive) throughout.
For `C[C@H]1C/C=C/[C@H]2[C@@H]3O[C@]3(C)[C@@H](C)[C@H]3[C@H](Cc4ccccc4)NC(=O)[C@]32OC(=O)O/C=C/[C@@](C)(O)C1=O` [CYTOCHALASIN E], the GI50 is 0.114 µM (active) in the assay on 786-0; < 0.01 µM (active) in the assay with ACHN; 0.075 µM (active) with EKVX; 0.0206 µM (active) with HOP-62; 17.5 µM (inactive) with KM12; 18.9 µM (inactive) with MDA-MB-435. Also, the GI50 in the assay with MDA-N was 0.0231 µM (active); in the assay on Malme-3M it was 0.0251 µM (active); in the assay with NCI-H226 it was 0.0333 µM (active); with NCI-H522, 0.0431 µM (active); in the assay on NCI/ADR-RES, 5.69 µM (inactive); with OVCAR-3, 0.0975 µM (active). The GI50 in the assay with SK-OV-3 is 0.0292 µM (active); in the assay on SN12C, 3.16 µM (inactive); in the assay with SNB-75 it was 0.0102 µM (active); with SR, 0.065 µM (active); in the assay with UACC-257 it was 0.263 µM (active); in the assay with UO-31, 0.0199 µM (active).
Regarding `Cc1ccc(S(=O)(=O)NC(=O)Nc2cc(Cl)c(S(N)(=O)=O)cc2S(N)(=O)=O)cc1`, the GI50 in the assay with 786-0, in the assay on EKVX, in the assay on HCT-116, in the assay with HOP-62, in the assay on KM12 and with MDA-MB-435 was > 100 µM (inactive) in each case. For the same compound, the GI50 in the assay on MDA-N, with Malme-3M, in the assay on NCI-H226, in the assay with NCI-H522, in the assay with NCI/ADR-RES and with OVCAR-3 was > 100 µM (inactive) each time. Further, the GI50 in the assay on SK-OV-3, with SN12C, in the assay on SNB-75, in the assay with UACC-257 and in the assay on UO-31 was > 100 µM (inactive) in each case.
Take `COc1ccc2cc(C(C)C(O)c3cc(F)c(F)c(F)c3F)ccc2c1` (centres undefined): the GI50 with 786-0 is > 100 µM (inactive); in the assay on ACHN it was 42.9 µM (inactive); with EKVX it was 45.5 µM (inactive); in the assay with HCT-116, > 100 µM (inactive); in the assay on HOP-62, 26.2 µM (inactive); with MDA-MB-435, > 100 µM (inactive). Further, the GI50 was > 100 µM (inactive) with MDA-N; > 100 µM (inactive) with Malme-3M; > 100 µM (inactive) in the assay with NCI-H226; 97.9 µM (inactive) in the assay with NCI/ADR-RES; 98.6 µM (inactive) with OVCAR-3; > 100 µM (inactive) in the assay on SK-OV-3. The GI50 in the assay with SN12C is > 100 µM (inactive); in the assay with SNB-75, 16.3 µM (inactive); with T47D it was 53.5 µM (inactive); in the assay with UACC-257, > 100 µM (inactive); in the assay with UO-31, 86.5 µM (inactive).
Turning to `N#CC(c1ccccc1)N(CCCCCCN(C(=O)c1ccccc1)C(C#N)c1ccccc1)C(=O)c1ccccc1` (centres undefined), the GI50 in the assay on 786-0 is 33.7 µM (inactive); in the assay with ACHN, 38.4 µM (inactive); with EKVX, 50.4 µM (inactive); in the assay on HCT-116 it was 25.1 µM (inactive); with KM12, 38.5 µM (inactive); with MDA-MB-435 it was 32.8 µM (inactive). The GI50 in the assay on MDA-N is 45.1 µM (inactive); with Malme-3M, 35.8 µM (inactive); with NCI-H226 it was 28.6 µM (inactive); with NCI/ADR-RES it was 16 µM (inactive); in the assay with OVCAR-3, 39 µM (inactive); in the assay on SK-OV-3, 41.4 µM (inactive). The GI50 in the assay on SN12C was 44.9 µM (inactive); with SNB-75 it was 52.4 µM (inactive); in the assay on T47D it was 28.5 µM (inactive); with UACC-257, 22.8 µM (inactive); in the assay with UO-31, 18 µM (inactive).
For the compound `[O-][S+](Nc1ccccc1)c1ccc(N2CCOCC2)cc1` (centres undefined), the GI50 in the assay with 786-0 was 88.9 µM (inactive); in the assay on ACHN, 65.8 µM (inactive); in the assay on EKVX, 94.6 µM (inactive); in the assay on HCT-116, 21.2 µM (inactive); in the assay with HOP-62, > 100 µM (inactive); in the assay with KM12, 23.6 µM (inactive). The GI50 in the assay on MDA-MB-435 was 32.7 µM (inactive); in the assay with Malme-3M it was 36.4 µM (inactive); in the assay on NCI-H226, > 100 µM (inactive); in the assay with NCI-H522, 32.8 µM (inactive); in the assay on NCI/ADR-RES, 51.9 µM (inactive); in the assay with OVCAR-3 it was > 100 µM (inactive). For the same compound, the GI50 in the assay on SN12C is > 100 µM (inactive); in the assay on SR, 60.3 µM (inactive); with T47D, 13.7 µM (inactive); with UACC-257 it was 34.2 µM (inactive); with UO-31 it was 10.8 µM (inactive).
In the case of `O=S(=O)(Nc1nccs1)c1ccc([As](=O)(O)O)cc1`, the GI50 in the assay on 786-0, in the assay on ACHN, in the assay on EKVX, in the assay on HCT-116, in the assay with HOP-62 and in the assay with KM12 was > 100 µM (inactive) throughout. Also, the GI50 in the assay on MDA-MB-435, in the assay on Malme-3M, in the assay with NCI-H226, with NCI-H522, in the assay with NCI/ADR-RES and in the assay on OVCAR-3 was > 100 µM (inactive) throughout. Besides, the GI50 in the assay with SK-OV-3, with SN12C, with SNB-75, in the assay with T47D and in the assay on UO-31 was > 100 µM (inactive) in each case.
`CC(Oc1ccc(Cl)cc1Cl)C(=O)NN1C(=O)CSC1c1ccc(Cl)cc1` (centres undefined): the GI50 in the assay on 786-0 is 53.6 µM (inactive); with ACHN it was 42.5 µM (inactive); in the assay on EKVX, 80 µM (inactive); in the assay on HCT-116, 57.9 µM (inactive); with HOP-62, 33.6 µM (inactive); in the assay with KM12 it was 86.3 µM (inactive). The GI50 in the assay with MDA-MB-435 is > 100 µM (inactive); in the assay with NCI-H226, 17.6 µM (inactive); in the assay on NCI-H522, 93.1 µM (inactive); with NCI/ADR-RES, > 100 µM (inactive); in the assay with OVCAR-3, 54.5 µM (inactive); in the assay on SK-OV-3, 54.3 µM (inactive). The GI50 with SN12C was 20 µM (inactive); with SNB-75 it was 27.9 µM (inactive); with SR it was 19.5 µM (inactive); in the assay with T47D, 42.5 µM (inactive); in the assay on UACC-257, 48.2 µM (inactive); with UO-31, > 100 µM (inactive).
With `CCOC(=O)C1=C(Cl)c2cccnc2C1=O`, the GI50 was 44 µM (inactive) with 786-0; 35.4 µM (inactive) with ACHN; 62.5 µM (inactive) in the assay on EKVX; 27.4 µM (inactive) with HCT-116; 32.2 µM (inactive) with HOP-62; > 100 µM (inactive) with KM12. Moreover, the GI50 in the assay on MDA-MB-435 is 28 µM (inactive); in the assay with MDA-N, 34.9 µM (inactive); with Malme-3M, 31.3 µM (inactive); with NCI-H226, > 100 µM (inactive); with NCI-H522 it was 86.5 µM (inactive); with NCI/ADR-RES, > 100 µM (inactive). Moreover, the GI50 in the assay on OVCAR-3 was 19.8 µM (inactive); in the assay on SK-OV-3 it was > 100 µM (inactive); with SN12C, 52.4 µM (inactive); in the assay with SNB-75, 13 µM (inactive); with SR, 11.4 µM (inactive); with UACC-257, 39.7 µM (inactive). Also, the GI50 in the assay on UO-31 is > 100 µM (inactive).
Take `O=C1OCC(O)=C1C(c1ccc(Cl)cc1)c1cc2c(cc1O)OCO2` (centres undefined): the GI50 in the assay with 786-0, in the assay with ACHN, in the assay on EKVX, with HCT-116, in the assay with HOP-62 and in the assay on KM12 was > 100 µM (inactive) in each case. The GI50 with MDA-MB-435, in the assay with MDA-N, in the assay on Malme-3M, in the assay with NCI-H226, with NCI/ADR-RES and with OVCAR-3 was > 100 µM (inactive) throughout. The GI50 with SK-OV-3, in the assay with SN12C, with SNB-75, in the assay with SR and in the assay with UO-31 was > 100 µM (inactive) in each case.
